According to patent US20140328847A1, “MITIGATION OF DISEASE BY INHIBITION OF GALECTIN-12” (The Regents of the University of California, priority 2011, published 2014):

Columns and labels:
[1] = tested on: adipocytes from Lgals12^+/+ and Lgals12^−/− mice; test: Lipolysis assay in primary adipocytes from Lgals12+/+ and Lgals12−/− mice (glycerol release); format: cell-based, mouse; conditions: for lipolysis (glycerol release): 1 h, 37° C.; for cAMP/dbcAMP-stimulated lipolysis: in the presence of adenylyl cyclase inhibitor SQ 22536, FIG. 9G
Method: (A) Adipocytes from the epididymal fat depots of Lgals12^+/+ and Lgals12^-/- mice were incubated with indicated concentrations of isoproterenol before being separated into cytosol and fat cake. Lipolytic proteins in each fraction were analyzed by Western blotting with indicated antibodies. (B) Quantification of lipid droplet (LD)-associated p-HSL and HSL by densitometry of Western blots (n=3 for each genotype). […] (D) Quantification of LD-associated ATGL by densitometry of Western blots (n=3 for each genotype). […] Asterisks denote statistical significance (p<0.05). Results are representative of three experiments. FIGS. 10A-C illustrate (A) Adipocytes from Lgals12^+/+ and -/- mice (n=3) were incubated with 1 U/ml ADA and increasing concentrations of PIA for 1 h at 37° C. and glycerol release was measured. Results were expressed as both absolute values and as % of glycerol release in the absence of PIA. (B) Adipocytes from Lgals12+/+ and Lgals12^-/- mice (n=3 each) were incubated with or without 10 μM cilostamide (Cilo) or 25 μM rolipram (Roli), individually or in combination, for 2 h at 37° C. Lipolysis was determined by measuring glycerol release. (C) Insulin suppression of lipolysis in adipocytes stimulated with 20 nM isoproterenol (% of maximal release in the absence of insulin). Asterisks denote statistical significance (p<0.05). Similar results were obtained in three experiments. Adipocytes were isolated from gonadal fat depots in Krebs-Ringer HEPES (KRH) buffer by collagenase digestion and floatation ([…] Lipid Res 47:1859-1864). After the final wash, cell density and triglyceride content of the adipocyte suspension were determined as described (Fine […] (1997) Int J Obes Relat Metab Disord 21:764-768.). We monitored lipolysis in adipocytes isolated from random-fed Lgals12^+/+ and Lgals12^-/- mice on regular diet, by measuring fatty acid and glycerol release, as described ([…] Lipid Res 47:1859-1864), with minor modifications. Briefly, 2.5×10^5 cells were incubated in 0.3 ml KRH/3% FAA-free BSA (for basal lipolysis), or KRH/3% FAA-free BSA containing indicated concentrations of lipolysis stimulators or inhibitors (Sigma) for 0-2 h at 37° C. with shaking at 150 rpm. At the end of the incubation, glycerol and NEFA released into the infranatant was determined with the Free Glycerol Reagent (Sigma) and the Nonesterified Fatty Acids Kit ([…]), respectively.

galectin-12 [2] = target: T1, galectin-12 (Mus musculus, UniProt Q91VD1); test: Binding of galectin-12 from mouse adipocyte lysates to fetuin-agarose (Western blotting); conditions: lactose 25 mM; mouse epididymal adipocyte lysates; FIG. 5A
T1 construct: from tissue; host or cells: primary mouse adipocytes from epididymal fat depot
T1 sequence (Q91VD1 1-314): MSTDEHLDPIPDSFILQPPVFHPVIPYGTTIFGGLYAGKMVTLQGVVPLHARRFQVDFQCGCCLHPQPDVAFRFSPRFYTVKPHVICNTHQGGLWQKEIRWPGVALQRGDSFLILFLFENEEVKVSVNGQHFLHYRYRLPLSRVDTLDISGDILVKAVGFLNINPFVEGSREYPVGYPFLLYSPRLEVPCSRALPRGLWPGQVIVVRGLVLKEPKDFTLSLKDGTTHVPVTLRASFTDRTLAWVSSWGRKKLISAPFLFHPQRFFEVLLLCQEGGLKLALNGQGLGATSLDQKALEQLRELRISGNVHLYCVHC
Method: (§1) FIGS. 5A-B illustrate association of galectin-12 with lipid droplets is not inhibited by lactose. (A) Mouse adipocytes from epididymal fat depot were lyzed and the lysates were incubated with fetuin-agarose, in the absence (−) or presence (+) of 25 mM lactose. Bound proteins were eluted with SDS-sample buffer and galectin-12 was detected by Western blotting. (B) Lipd droplets were purified from mouse adipocyte homogenates in the absence (−) or presence (+) of 25 mM lactose. Galectin-12 was detected as in (A).
(§2) To test whether galectin-12 association with lipid droplets is glycan-dependent, we also purified lipid droplets in the presence of lactose.

galectin-12 [3] = target: T1, galectin-12; test: Association of galectin-12 with lipid droplets purified from mouse adipocyte homogenates; conditions: lactose 25 mM present during lipid droplet purification; FIG. 5B
Method: as §1, §2

CC(Cc1ccccc1)Nc1ncnc2c1ncn2[C@@H]1O[C@H](CO)[C@@H](O)[C@H]1O (single isomer, unassigned; (-)) [PIA, (−)-N6-(2-Phenylisopropyl)adenosine]
lipolysis (glycerol release) ([1]; increasing concentrations of PIA with 1 U/ml ADA, FIG. 10A): suppressed lipolysis in both genotypes with similar efficiencies

CC(C)Cn1c(=O)n(C)c(=O)c2[nH]cnc21 [IBMX, 3-isobutyl-1-methylxanthine]
lipolysis (glycerol release) ([1]; 0.1 mM IBMX, both Lgals12+/+ and Lgals12−/− adipocytes, FIG. 9F): greatly enhanced

OC[C@H]1O[C@@H](O[C@H]2[C@H](O)[C@@H](O)C(O)O[C@@H]2CO)[C@H](O)[C@@H](O)[C@H]1O (stereo partly shown) [Lactose]
binding of galectin-12 to fetuin-agarose (galectin-12 [2]): completely inhibited | galectin-12 association with lipid droplets (galectin-12 [3]): did not affect

Nc1ncnc2c1ncn2[C@@H]1O[C@@H]2COP(=O)(O)O[C@H]2[C@H]1O [cAMP, cyclic adenosine monophosphate]
cAMP/dbcAMP-stimulated lipolysis [1]: stimulated greater lipolysis in Lgals12^−/− adipocytes than in Lgals12^+/+ adipocytes

CCCC(=O)Nc1ncnc2c1ncn2[C@@H]1O[C@@H]2COP(=O)(O)O[C@H]2[C@H]1OC(=O)CCC [dbcAMP, dibutyryl cAMP]
cAMP/dbcAMP-stimulated lipolysis [1]: induced comparable lipolysis in adipocytes of the two genotypes

insulin
insulin suppression of lipolysis ([1]; Lgals12−/− adipocytes stimulated with 20 nM isoproterenol, FIG. 10C): remained sensitive
